The source of these data is patent US9211325B2, “Peptide adjuvants” (priority 2008, dated 2015).

For the assay, the system named is H5N1 A\Hanoi\30408\2005. Set-up: species or system BALB/c mice. Conditions: mouse, in vivo.

Entries after “also recorded” stand apart in the source; their conditions may differ.

Regarding “KWCEC (Short peptide sequence not known to occur in nature) [5mer4]”, the “clinical signs of disease” value was “no clinical signs of disease”, the survival is recorded as 90%, the “survival (protected from death)” value was 50% and the weight loss result is given as “minimal weight loss; also recorded: no statistically significant weight loss”.
